Source: patent publication US6762174B1 (priority 1998, dated 2004)
Read-outs that look alike come from different tables or passages of the source.

Key:
MOPC-315 myeloma = assay: MOPC-315 Myeloma study #2: β-alethine ip day 10 (1 × 10^6 tumor cells); details: for Mean Tumor Size: 3 mg BT alone
[1] = tested on: MT-1 breast cancer xenograft

**Q.** What does the source list for `NCCC(=O)NCCSSCCNC(=O)CCN` [BT, β-alethine]?
**A.** Mean Tumor Size (MOPC-315 myeloma; day 10): 21.5 mm; Mean Tumor Size (MOPC-315 myeloma; day 14): 24 mm; Mean Tumor Size (MOPC-315 myeloma; day 17): 24 mm; Mean Tumor Size (MOPC-315 myeloma; day 21): (dead); Animals Surviving (MOPC-315 myeloma; BT 3 ng/kg, day 10): 10; Animals Surviving (MOPC-315 myeloma; BT 3 ng/kg, day 11): 10; Animals Surviving (MOPC-315 myeloma; BT 3 ng/kg, day 12): 10; Animals Surviving (MOPC-315 myeloma; BT 3 ng/kg, day 13): 10; Animals Surviving (MOPC-315 myeloma; BT 3 ng/kg, day 14): 7; Animals Surviving (MOPC-315 myeloma; BT 3 ng/kg, day 15): 5; Animals Surviving (MOPC-315 myeloma; BT 3 ng/kg, day 16): 5; Animals Surviving (MOPC-315 myeloma; BT 3 ng/kg, day 17): 4; Animals Surviving (MOPC-315 myeloma; BT 3 ng/kg, day 18): 1; Animals Surviving (MOPC-315 myeloma; BT 3 ng/kg, day 19): 1; Animals Surviving (MOPC-315 myeloma; BT 3 ng/kg, day 20): 1; Animals Surviving (MOPC-315 myeloma; BT 3 ng/kg, day 21): 0; Animals Surviving (MOPC-315 myeloma; BT 100 μg/kg, day 10): 10; Animals Surviving (MOPC-315 myeloma; BT 100 μg/kg, day 11): 9; Animals Surviving (MOPC-315 myeloma; BT 100 μg/kg, day 12): 6; Animals Surviving (MOPC-315 myeloma; BT 100 μg/kg, day 13): 5; Animals Surviving (MOPC-315 myeloma; BT 100 μg/kg, day 14): 5; Animals Surviving (MOPC-315 myeloma; BT 100 μg/kg, day 15): 5; Animals Surviving (MOPC-315 myeloma; BT 100 μg/kg, day 16): 4; Animals Surviving (MOPC-315 myeloma; BT 100 μg/kg, day 17): 4; Animals Surviving (MOPC-315 myeloma; BT 100 μg/kg, day 18): 1; Animals Surviving (MOPC-315 myeloma; BT 100 μg/kg, day 19): 1; Animals Surviving (MOPC-315 myeloma; BT 100 μg/kg, day 20): 0; Animals Surviving (MOPC-315 myeloma; BT 3 mg/kg, day 10): 10; Animals Surviving (MOPC-315 myeloma; BT 3 mg/kg, day 11): 9; Animals Surviving (MOPC-315 myeloma; BT 3 mg/kg, day 12): 6; Animals Surviving (MOPC-315 myeloma; BT 3 mg/kg, day 13): 5; Animals Surviving (MOPC-315 myeloma; BT 3 mg/kg, day 14): 5; Animals Surviving (MOPC-315 myeloma; BT 3 mg/kg, day 15): 5; Animals Surviving (MOPC-315 myeloma; BT 3 mg/kg, day 16): 4; Animals Surviving (MOPC-315 myeloma; BT 3 mg/kg, day 17): 4; Animals Surviving (MOPC-315 myeloma; BT 3 mg/kg, day 18): 1; Animals Surviving (MOPC-315 myeloma; BT 3 mg/kg, day 19): 1; Animals Surviving (MOPC-315 myeloma; BT 3 mg/kg, day 20): 0; Animals Surviving (MOPC-315 myeloma; BT 30 fg/kg, day 10): 10; Animals Surviving (MOPC-315 myeloma; BT 30 fg/kg, day 11): 10; Animals Surviving (MOPC-315 myeloma; BT 30 fg/kg, day 12): 9; Animals Surviving (MOPC-315 myeloma; BT 30 fg/kg, day 13): 7; Animals Surviving (MOPC-315 myeloma; BT 30 fg/kg, day 14): 5; Animals Surviving (MOPC-315 myeloma; BT 30 fg/kg, day 15): 5; Animals Surviving (MOPC-315 myeloma; BT 30 fg/kg, day 16): 1; Animals Surviving (MOPC-315 myeloma; BT 30 fg/kg, day 17): 1; Animals Surviving (MOPC-315 myeloma; BT 30 fg/kg, day 18): 0; Median Tumor Size ([1]; BT 30 ng/kg every 14 days, day 13): 0.080 cm^3; Median Tumor Size ([1]; BT 30 ng/kg every 14 days, day 16): 0.104 cm^3; Median Tumor Size ([1]; BT 30 ng/kg every 14 days, day 20): 0.176 cm^3; Median Tumor Size ([1]; BT 30 ng/kg every 14 days, day 23): 0.202 cm^3; Median Tumor Size ([1]; BT 30 ng/kg every 14 days, day 27): 0.250 cm^3; Median Tumor Size ([1]; BT 30 ng/kg every 14 days, day 30): 0.294 cm^3; Median Tumor Size ([1]; BT 30 ng/kg every 14 days, day 34): 0.298 cm^3; Median Tumor Size ([1]; BT 30 ng/kg every 14 days, day 38): 0.426 cm^3; Median Tumor Size ([1]; BT 30 ng/kg every 14 days, day 41): 0.429 cm^3; Median Tumor Size ([1]; BT 30 ng/kg every 14 days, day 45): 0.419 cm^3; RTV ([1]; BT 30 ng, day 13): 1; RTV ([1]; BT 30 ng, day 16): 1.4; RTV ([1]; BT 30 ng, day 20): 2.1; RTV ([1]; BT 30 ng, day 23): 2.3; RTV ([1]; BT 30 ng, day 27): 2.8; RTV ([1]; BT 30 ng, day 30): 3.4; RTV ([1]; BT 30 ng, day 34): 3.8; RTV ([1]; BT 30 ng, day 38): 4.5; RTV ([1]; BT 30 ng, day 41): 4.9; RTV ([1]; BT 30 ng, day 45): 6.0; Median Tumor Size ([1]; BT 30 ug/kg every 14 days, day 13): 0.055 cm^3; Median Tumor Size ([1]; BT 30 ug/kg every 14 days, day 16): 0.095 cm^3; Median Tumor Size ([1]; BT 30 ug/kg every 14 days, day 20): 0.180 cm^3; Median Tumor Size ([1]; BT 30 ug/kg every 14 days, day 23): 0.193 cm^3; Median Tumor Size ([1]; BT 30 ug/kg every 14 days, day 27): 0.325 cm^3; Median Tumor Size ([1]; BT 30 ug/kg every 14 days, day 30): 0.408 cm^3; Median Tumor Size ([1]; BT 30 ug/kg every 14 days, day 34): 0.410 cm^3; Median Tumor Size ([1]; BT 30 ug/kg every 14 days, day 38): 0.607 cm^3; Median Tumor Size ([1]; BT 30 ug/kg every 14 days, day 41): 0.696 cm^3; Median Tumor Size ([1]; BT 30 ug/kg every 14 days, day 45): 0.743 cm^3; RTV ([1]; BT 30 ug, day 13): 1; RTV ([1]; BT 30 ug, day 16): 1.4; RTV ([1]; BT 30 ug, day 20): 2.6; RTV ([1]; BT 30 ug, day 23): 3.0; RTV ([1]; BT 30 ug, day 27): 4.3; RTV ([1]; BT 30 ug, day 30): 5.2; RTV ([1]; BT 30 ug, day 34): 6.0; RTV ([1]; BT 30 ug, day 38): 9.1; RTV ([1]; BT 30 ug, day 41): 11.5; RTV ([1]; BT 30 ug, day 45): 14.0; Median Tumor Size ([1]; BT 30 fg/kg every 14 days, day 13): 0.104 cm^3; Median Tumor Size ([1]; BT 30 fg/kg every 14 days, day 16): 0.128 cm^3; Median Tumor Size ([1]; BT 30 fg/kg every 14 days, day 20): 0.213 cm^3; Median Tumor Size ([1]; BT 30 fg/kg every 14 days, day 23): 0.253 cm^3; Median Tumor Size ([1]; BT 30 fg/kg every 14 days, day 27): 0.442 cm^3; Median Tumor Size ([1]; BT 30 fg/kg every 14 days, day 30): 0.637 cm^3; Median Tumor Size ([1]; BT 30 fg/kg every 14 days, day 34): 1.062 cm^3; Median Tumor Size ([1]; BT 30 fg/kg every 14 days, day 38): 1.241 cm^3; Median Tumor Size ([1]; BT 30 fg/kg every 14 days, day 41): 1.464 cm^3; Median Tumor Size ([1]; BT 30 fg/kg every 14 days, day 45): 1.911 cm^3; RTV ([1]; BT 30 fg, day 13): 1; RTV ([1]; BT 30 fg, day 16): 1.6; RTV ([1]; BT 30 fg, day 20): 3.4; RTV ([1]; BT 30 fg, day 23): 4.4; RTV ([1]; BT 30 fg, day 27): 7.6; RTV ([1]; BT 30 fg, day 30): 9.3; RTV ([1]; BT 30 fg, day 34): 11.9; RTV ([1]; BT 30 fg, day 38): 16.1; RTV ([1]; BT 30 fg, day 41): 18.2; RTV ([1]; BT 30 fg, day 45): 19.8
